Key:
[1] = system: human neuroblastoma cell lines SH-SY5Y; test: Improvement of mitochondrial dysfunction in MPP+-treated SH-SY5Y cells (Alamar Blue mitochondrial oxidation reduction activity); format: cell-based; conditions: SH-SY5Y cells in 1.5 mM MPP+ medium, relative to cells in DMSO alone = 100%, read-out: Fluorescence Intensity (%)
Description: Evaluation of Improvement of Mitochondrial Dysfunction using Human Neuroblastoma Cell Lines SH-SY5Y Treated with 1-methyl-4-phenylpyridinium (MPP^+)
In human neuroblastoma cell lines SH-SY5Y in which mitochondrial activity was injured by MPP^+ treatment (Bollimuntha S. et al., J Biol Chem, 280, 2132-2140 (2005) and Shang T. et al., J Biol Chem, 280, 34644-34653 (2005)), improvement of the mitochondrial dysfunction was evaluated on the basis of the measurement value of the mitochondrial oxidation reduction activity using Alamar Blue fluorescent dye after the compound addition (Nakai M. et. al, Exp Neurol, 179, 103-110 (2003)).
The human neuroblastoma cell lines SH-SY5Y were cultured in Dulbecco's Modified Eagle's Medium containing 10% fetal bovine serum (DMEM containing 50 units/ml penicillin and 50 μg/ml streptomycin as antibiotics) at 37° C. in the presence of 5% carbon dioxide. Cells were scattered on a poly-D-lysine-coated 96-well black plate at a concentration of 3-6×10^4 cells/cm^2 (medium amount: 100 μl/well), and cultured in the above medium for two days. Further, the medium was changed to a DMEM containing a 1% N2 supplement (N2-DMEM) or to a medium (100 μl/well) in which 1.5 mM MPP^+ was dissolved. The cells were cultured therein for 39 to 48 hours, and then subjected to a mitochondrial oxidation reduction activity measurement system. A sample compound that had been previously dissolved in dimethyl sulfoxide (DMSO) was diluted with N2-DMEM, and added in a volume of 10 μl/well 24 hours before the activity measurement (final compound concentration: 0.01 to 1 μg/ml).
After removal of the medium by suction, a balanced salt solution containing 10% Alamar Blue (154 mM sodium chloride, 5.6 mM potassium chloride, 2.3 mM calcium chloride, 1.0 mM magnesium chloride, 3.6 mM sodium bicarbonate, 5 mM glucose, 5 mM HEPES, pH 7.2) was added in a volume of 100 μl/well, and reacted in an incubator at 37° C. for 1 hour. The fluorescent intensity was detected using a fluorescence detector (a product of Hamamatsu Photonics K.K., excitation wavelength 530 nm, measurement wavelength 580 nm) to thereby measure the mitochondrial oxidation reduction activity.
The fluorescent intensity of the well of the cells cultured in a medium containing MPP^+ and in each of the sample compounds was relatively evaluated based on a 100% fluorescent intensity of the well of the cells cultured in a medium containing DMSO alone (final concentration: 0.1%).

SMILES | melting point | also measured
CCCOc1ccc(F)c2c(=O)c(-c3ccc(OC)c(Cl)c3)c[nH]c12 [Example 4, 3-(3-Chloro-4-methoxyphenyl)-5-fluoro-8-propoxy-1H-quinolin-4-one] | 217 to 218 °C | activity at 0.01 µg/mL ([1]; test compound 0.01 μg/ml): 56%; activity at 0.03 µg/mL ([1]; test compound 0.03 μg/ml): 61%; activity at 0.1 µg/mL ([1]; test compound 0.1 μg/ml): 70%; activity at 0.3 µg/mL ([1]; test compound 0.3 μg/ml): 72%; activity at 1 µg/mL ([1]; test compound 1 μg/ml): 59%
CCOc1ccc(F)c2c(=O)c(-c3ccc(OC)cc3OC)c[nH]c12 [Example 12, 3-(2,4-Dimethoxyphenyl)-8-ethoxy-5-fluoro-1H-quinolin-4-one] | 154 to 155 °C | –
CCCOc1ccc(F)c2c(=O)c(-c3ccc(O)cc3)c[nH]c12 [Example 95, 5-Fluoro-3-(4-hydroxyphenyl)-8-propoxy-1H-quinolin-4-one] | 271 to 272 °C | –
CCCOc1ccc(F)c2c(=O)c(-c3ccc(OC)cc3OC(C)C)c[nH]c12 [Example 15, 5-Fluoro-3-(2-isopropoxy-4-methoxyphenyl)-8-propoxy-1H-quinolin-4-one] | 204 to 206 °C | –
COc1ccc(-c2c[nH]c3c(N4CCOCC4)ccc(F)c3c2=O)cc1 [Example 14, 5-Fluoro-3-(4-methoxyphenyl)-8-morpholin-4-yl-1H-quinolin-4-one] | 249 to 251 °C | –
CCCOc1ccc(F)c2c(=O)c(-c3ccc(OCC)c(F)c3)c[nH]c12 [Example 50, 3-(4-Ethoxy-3-fluorophenyl)-5-fluoro-8-propoxy-1H-quinolin-4-one] | 176 to 177 °C | –
CCCOc1ccc(F)c2c(=O)c(-c3ccc(OC)c(F)c3)c[nH]c12 [Example 2, 5-Fluoro-3-(3-fluoro-4-methoxyphenyl)-8-propoxy-1H-quinolin-4-one] | 194 to 195 °C | –
CCCOc1ccc(F)c2c(=O)c(-c3ccc(OCC)cc3OC)c[nH]c12 [Example 19, 3-(4-Ethoxy-2-methoxyphenyl)-5-fluoro-8-propoxy-1H-quinolin-4-one] | 118 to 120 °C | –
COc1ccc(-c2c[nH]c3c(OCCCNS(C)(=O)=O)ccc(F)c3c2=O)cc1 [Example 27, N-{3-[5-Fluoro-3-(4-methoxyphenyl)-4-oxo-1,4-dihydroquinolin-8-yloxy]propyl}methanesulfonamide] | 120 to 121 °C | –
CCCOc1ccc(F)c2c(=O)c(-c3ccc(OC(F)(F)F)cc3)c(C(F)(F)F)[nH]c12 [Example 82, 5-Fluoro-8-propoxy-3-(4-trifluoromethoxyphenyl)-2-trifluoromethyl-1H-quinolin-4-one] | 143 to 144 °C | –
CCCOc1ccc(F)c2c(=O)c(-c3ccco3)c(C(C)C)[nH]c12 [Example 84, 5-Fluoro-3-furan-2-yl-2-isopropyl-8-propoxy-1H-quinolin-4-one] | 113 to 114 °C | –
CCCOc1ccc(F)c2c(=O)c(-c3ccco3)c(C)[nH]c12 [Example 76, 5-Fluoro-3-furan-2-yl-2-methyl-8-propoxy-1H-quinolin-4-one] | 203 to 204 °C | –
COc1ccc(-c2c[nH]c3c(OCC4CCC4)ccc(F)c3c2=O)cc1 [Example 41, 8-Cyclobutylmethoxy-5-fluoro-3-(4-methoxyphenyl)-1H-quinolin-4-one] | 193 to 194 °C | –
CCCOc1ccc(F)c2c(=O)c(-c3ccncc3)c(C)[nH]c12 [Example 69, 5-Fluoro-2-methyl-8-propoxy-3-pyridin-4-yl-1H-quinolin-4-one] | 265 to 266 °C | –
COc1ccc(-c2c[nH]c3c(OC(C)C)ccc(F)c3c2=O)cc1 [Example 9, 5-Fluoro-8-isopropoxy-3-(4-methoxyphenyl)-1H-quinolin-4-one] | 193 to 194 °C | –
CCCOc1ccc(F)c2c(=O)c(-c3ccc(OC)cc3)c(C)[nH]c12 [Example 67, 5-Fluoro-3-(4-methoxyphenyl)-2-methyl-8-propoxy-1H-quinolin-4-one] | 211 to 212 °C | –
CCCOc1ccc(F)c2c(=O)c(-c3ccc(CC)cc3)c(C(F)(F)F)[nH]c12 [Example 80, 3-(4-Ethylphenyl)-5-fluoro-8-propoxy-2-trifluoromethyl-1H-quinolin-4-one] | 187 to 188 °C | –

SMILES | melting point | also measured
CCCOc1ccc(F)c2c(=O)c(-c3cccs3)c(C)[nH]c12 [Example 72, 5-Fluoro-2-methyl-8-propoxy-3-thiophen-2-yl-1H-quinolin-4-one] | 233 to 234 °C | –
CCCOc1ccc(F)c2c(=O)c(-c3cc(OC)ccc3OC)c[nH]c12 [Example 65, 3-(2,5-Dimethoxyphenyl)-5-fluoro-8-propoxy-1H-quinolin-4-one] | 156 to 157 °C | –
CCCOc1ccc(F)c2c(=O)c(-c3ccco3)c[nH]c12 [Example 58, 5-Fluoro-3-furan-2-yl-8-propoxy-1H-quinolin-4-one] | 210 to 212 °C | –
CCCOc1ccc(F)c2c(=O)c(-c3ccc(OCC)cc3)c[nH]c12 [Example 33, 3-(4-Ethoxyphenyl)-5-fluoro-8-propoxy-1H-quinolin-4-one] | 203 to 205 °C | –
COc1ccc(-c2c[nH]c3c(N(C)C(C)C)ccc(F)c3c2=O)cc1 [Example 29, 5-Fluoro-8-(N-isopropyl-N-methylamino)-3-(4-methoxyphenyl)-1H-quinolin-4-one] | 267 to 269 °C | –
CCCOc1ccc(F)c2c(=O)c(-c3ccsc3C=O)c[nH]c12 [Example 60, 3-(5-Fluoro-4-oxo-8-propoxy-1,4-dihydroquinolin-3-yl)thiophene-2-carbaldehyde] | 190 to 191 °C | –
CCCOc1ccc(F)c2c(=O)c(-c3ccc(OC)cc3)c(C(F)(F)F)[nH]c12 [Example 77, 5-Fluoro-3-(4-methoxyphenyl)-8-propoxy-2-trifluoromethyl-1H-quinolin-4-one] | 170 to 171 °C | –
COc1ccc(-c2c[nH]c3c(OCC4CCCO4)ccc(F)c3c2=O)cc1 (centres unmarked) [Example 39, 5-Fluoro-3-(4-methoxyphenyl)-8-(tetrahydrofuran-2-ylmethoxy)-1H-quinolin-4-one] | 108 to 110 °C | –
COc1ccc(-c2c[nH]c3c(N(C)CC(C)C)ccc(F)c3c2=O)cc1 [Example 28, 5-Fluoro-8-(N-isobutyl-N-methylamino)-3-(4-methoxyphenyl)-1H-quinolin-4-one] | 144 to 145 °C | –
CCCOc1ccc(F)c2c(=O)c(-c3cccnc3)c[nH]c12 [Example 49, 5-Fluoro-8-propoxy-3-pyridin-3-yl-1H-quinolin-4-one] | 234 to 236 °C | –
COc1ccc(-c2c[nH]c3c(-c4cc5ccccc5s4)ccc(F)c3c2=O)cc1 [Example 88, 8-Benzo[b]thiophen-2-yl-5-fluoro-3-(4-methoxyphenyl)-1H-quinolin-4-one] | 276 to 277 °C | –
CCOc1ccc(F)c2c(=O)c(-c3ccc(OC)cc3)c[nH]c12 [Example 11, 8-Ethoxy-5-fluoro-3-(4-methoxyphenyl)-1H-quinolin-4-one] | 155 to 156 °C | –
CCCOc1ccc(F)c2c(=O)c(-c3ccc(F)cc3)c(C(F)(F)F)[nH]c12 [Example 81, 5-Fluoro-3-(4-fluorophenyl)-8-propoxy-2-trifluoromethyl-1H-quinolin-4-one] | 154 to 155 °C | –
CCCOc1ccc(F)c2c(=O)c(-c3ccc(OC)cc3F)c[nH]c12 [Example 17, 5-Fluoro-3-(2-fluoro-4-methoxyphenyl)-8-propoxy-1H-quinolin-4-one] | 230 to 232 °C | –
CCCOc1ccc(F)c2c(=O)c(-c3ccc(C(=O)OC)cc3)c[nH]c12 [Example 55, Methyl 4-(5-fluoro-4-oxo-8-propoxy-1,4-dihydroquinolin-3-yl)benzoate] | 201 to 202 °C | –
COc1ccc(-c2c[nH]c3c(OCC(C)O)ccc(F)c3c2=O)cc1 (centres unmarked) [Example 102, 5-Fluoro-8-(2-hydroxypropoxy)-3-(4-methoxyphenyl)-1H-quinolin-4-one] | 216 to 218 °C | –
